Assay results as given in PMC2737062 (Bioorganic & medicinal chemistry, 2009).
Entries after “also recorded” stand apart in the source; their conditions may differ. Structures can show the parent of a compound that is named as a salt. Where two headings read alike, the source gives them in different places.

How the values were obtained:
[1] = biological target: T1, soybean lipoxygenase-1 (sLO-1) (Glycine max, UniProt P08170); assay: IC50 assay of sLO-1 with PS, OS and OA inhibitors, LA as substrate; format: biochemical
T1 sequence (P08170 1-839): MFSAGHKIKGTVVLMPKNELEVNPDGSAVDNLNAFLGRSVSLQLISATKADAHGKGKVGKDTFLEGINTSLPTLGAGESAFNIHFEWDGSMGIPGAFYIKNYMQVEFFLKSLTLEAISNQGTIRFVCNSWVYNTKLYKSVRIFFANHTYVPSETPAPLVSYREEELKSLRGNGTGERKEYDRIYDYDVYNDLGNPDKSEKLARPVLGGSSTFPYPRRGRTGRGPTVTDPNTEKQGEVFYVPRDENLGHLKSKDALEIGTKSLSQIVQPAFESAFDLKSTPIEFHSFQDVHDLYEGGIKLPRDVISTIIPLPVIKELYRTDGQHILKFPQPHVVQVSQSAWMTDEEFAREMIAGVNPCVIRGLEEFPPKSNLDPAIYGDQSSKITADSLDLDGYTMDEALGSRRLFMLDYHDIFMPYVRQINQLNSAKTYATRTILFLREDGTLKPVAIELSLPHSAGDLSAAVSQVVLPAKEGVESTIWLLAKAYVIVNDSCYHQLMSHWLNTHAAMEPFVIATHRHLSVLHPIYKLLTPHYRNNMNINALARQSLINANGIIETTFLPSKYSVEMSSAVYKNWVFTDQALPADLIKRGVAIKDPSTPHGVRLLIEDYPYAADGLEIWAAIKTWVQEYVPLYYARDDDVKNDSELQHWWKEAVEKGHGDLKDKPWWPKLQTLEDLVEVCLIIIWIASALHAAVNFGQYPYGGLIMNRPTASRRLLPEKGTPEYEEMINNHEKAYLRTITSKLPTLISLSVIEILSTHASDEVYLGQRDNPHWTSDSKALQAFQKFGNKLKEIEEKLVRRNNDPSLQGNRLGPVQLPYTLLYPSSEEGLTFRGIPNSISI

[2] = biological target: T1, soybean lipoxygenase-1 (sLO-1); format: biochemical; conditions: for effect of LO product on the AA:LA ratio: up to 5 μM product
[3] = biological target: T1, soybean lipoxygenase-1 (sLO-1); format: biochemical; conditions: for effect of inhibitor on the (kcat/KM)^ALA/(kcat/KM)^LA ratio: inhibitor in excess of its IC50 value; for effect of LO product on the endogenous substrate mixture ratio ALA:LA: up to 5 μM product addition
[4] = tested on: 15-hLO-1 (human reticulocyte 15-lipoxygenase); conditions: cited from earlier work

Compound: CCCCCCCC/C=C\CCCCCCCCOS(=O)(=O)O [OS, oleyl sulfate]
- IC50 [1]: 1000 ± 100 nM
- AC50 [2]: 1500 ± 300 nM
- effect of inhibitor on the (kcat/KM)^ALA/(kcat/KM)^LA ratio [3]: none of the inhibitors, OS, OA, or PS, affected

Compound: CCCCC[C@H](O)/C=C/C=C\CCCCCCCC(=O)O [13-HODE, 13-(S)-hydroxyoctadecadienoic acid]
- effect of LO product on the AA:LA ratio [2]: no observable effect; also recorded: did not display any observable effect
- effect of LO product on the endogenous substrate mixture ratio ALA:LA [3]: no effect
- (kcat/KM)^AA/(kcat/KM)^LA ratio of 15-hLO-1 ([4]; 5 μM 13-HODE, increase from 1.4): 2.9

Compound: CCCCC/C=C\C[C@H](O)/C=C/C=C\C/C=C\CCCC(=O)O [12-HETE, 12-(S)-hydroxyeicosatetraenoic acid]
- (kcat/KM)^AA/(kcat/KM)^LA ratio ([2]; addition of 12-HETE (5 μM), control 1.8 ± 0.2): 2.4 ± 0.2
- maximum (kcat/KM)^AA/(kcat/KM)^LA ratio at saturating conditions ([2]; calculated from saturation curve fit): 5.1 ± 0.3
- binding affinity to sLO-1 weaker than to 15-hLO-1 ([2]; ratio of half saturation points, sLO-1 vs 15-hLO-1): ~30 fold
- effect on sLO-1 catalysis ([2]; saturating amounts at the allosteric site, both AA and LA as substrate): inhibit sLO-1
- effect of LO product on the endogenous substrate mixture ratio ALA:LA [3]: no effect
- (kcat/KM)^AA/(kcat/KM)^LA ratio of 15-hLO-1 ([4]; with 12-HETE, increase from 1.8): 2.7

Compound: CCCCCCCC/C=C\CCCCCCCC(=O)O [OA, oleic acid]
- IC50 [1]: 11000 ± 3000 nM
- effect of inhibitor on the AA:LA substrate ratio ([2]; competitive inhibitor, at IC50 and 5-fold IC50): no effect
- effect of inhibitor on the (kcat/KM)^ALA/(kcat/KM)^LA ratio [3]: none of the inhibitors, OS, OA, or PS, affected

Compound: CC/C=C\C/C=C\C/C=C\CCCCCCCC(=O)O [ALA, α-linolenic acid]
- (kcat/KM)^ALA/(kcat/KM)^LA ratio (substrate specificity, no effector) ([3]; ALA:LA 1:1, 1 μM total substrate, 100 mM Borate pH 9.2, 22 °C): 0.75 ± 0.5

Compound: CC/C=C\C[C@H](O)/C=C/C=C\CCCCCCCC(=O)O [13-HOTrE]
- effect of LO product on the AA:LA ratio [2]: no observable effect
- effect of LO product on the endogenous substrate mixture ratio ALA:LA [3]: no effect

Compound: CCCCC/C=C\C/C=C\C/C=C\C/C=C\CCCC(=O)O [AA, arachidonic acid]
- (kcat/KM)^AA/(kcat/KM)^LA ratio (substrate specificity, no effector) ([2]; AA:LA 1:1, 1 μM total substrate, 100 mM Borate pH 9.2, 22 °C): 1.8 ± 0.2
